From US20230080054A1 (ILDONG PHARMACEUTICAL CO., LTD., priority 2021, published 2023) come the findings set out here.

In assay [1] the target is T1, human ANO6 (Homo sapiens, UniProt Q4KMQ2).
T1 construct: expressed in transfected cells
T1 sequence (Q4KMQ2 1-931 isoform Q4KMQ2-2): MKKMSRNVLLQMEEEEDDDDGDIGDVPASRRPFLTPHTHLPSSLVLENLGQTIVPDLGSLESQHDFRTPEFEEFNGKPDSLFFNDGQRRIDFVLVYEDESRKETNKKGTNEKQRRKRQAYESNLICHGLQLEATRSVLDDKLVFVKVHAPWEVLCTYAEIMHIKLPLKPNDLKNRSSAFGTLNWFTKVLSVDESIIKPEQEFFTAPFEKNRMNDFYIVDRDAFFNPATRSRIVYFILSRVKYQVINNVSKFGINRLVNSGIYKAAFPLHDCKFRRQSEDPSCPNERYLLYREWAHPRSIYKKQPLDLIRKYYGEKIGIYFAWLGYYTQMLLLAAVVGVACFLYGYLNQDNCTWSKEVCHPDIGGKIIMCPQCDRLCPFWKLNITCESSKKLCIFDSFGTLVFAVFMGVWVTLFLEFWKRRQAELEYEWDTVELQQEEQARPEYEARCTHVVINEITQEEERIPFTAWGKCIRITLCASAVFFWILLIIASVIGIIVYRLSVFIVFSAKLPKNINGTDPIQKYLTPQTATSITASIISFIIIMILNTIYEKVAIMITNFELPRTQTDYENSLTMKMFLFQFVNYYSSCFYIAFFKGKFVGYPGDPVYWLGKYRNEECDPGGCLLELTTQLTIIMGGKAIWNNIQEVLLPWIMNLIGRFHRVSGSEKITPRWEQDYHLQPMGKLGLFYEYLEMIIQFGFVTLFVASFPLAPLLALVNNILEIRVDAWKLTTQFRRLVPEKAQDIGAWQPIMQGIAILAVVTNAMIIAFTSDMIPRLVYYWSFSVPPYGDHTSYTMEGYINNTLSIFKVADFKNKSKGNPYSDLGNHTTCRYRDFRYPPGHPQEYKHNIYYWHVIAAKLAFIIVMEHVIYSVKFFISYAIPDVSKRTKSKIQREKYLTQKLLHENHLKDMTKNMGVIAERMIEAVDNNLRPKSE
Briefly: LACT C2 assay (phosphatidylserine scramblase function assay). The assay is classed as cell-based. Conditions: FRT cells expressing human ANO6, 10 μM ionomycin; for inhibition at 1 µM: test compound 1 μM, read-out: Inhibition Level 1 μM; for inhibition at 0.1 µM: test compound 100 nM, read-out: Inhibition Level 100 nM. Put shortly:
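Inhibition was normalised between ionomycin-only (0%) and untreated (100%) wells, with triplicates averaged. Readout was background-corrected Lact-C2-GFP (500 nM) fluorescence from imaged cells. The cells were FRT cells stably expressing human ANO6, given compound at 1% DMSO for 10 min before a 10 min 10 μM ionomycin challenge.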

Assay [2] addresses T1, human ANO6. Put plainly: YFP quenching assay (ANO6 ion channel activity). Conditions: 10 μM ionomycin; for inhibition at 1 µM: test compound 1 μM, read-out: Inhibition Level 1 μM; for inhibition at 30 µM: test compound 30 μM, read-out: Inhibition Level 30 μM. The class given is cell-based. Put shortly: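 FRT cells stably expressing human ANO6 and YFP-H148Q/I152L/F46L, preincubated 10 min at 40° C with compounds (1% DMSO) in PBS. Quench read every 0.4 s after injecting 140 mM SCN- with 10 μM ionomycin; % inhibition from the 3.6–7.6 s fluorescence difference, normalised to no-ionomycin (100%) and ionomycin-only (0%) wells, duplicate or triplicate.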

SMILES strings stand for the structures. Where only a bound is given, the exact number is not on record here.

The term inhibition denotes the percentage by which the read-out fell short of the control.

With `CCC(CC)NC(=O)c1cccc(Nc2ccc(-c3ccccc3)nn2)c1` [Compound 66, N-(pentan-3-yl)-3-[(6-phenylpyridazin-3-yl)amino]benzamide], the inhibition at 1 µM in assay [1] was less than 30%; in assay [2] it was 30 to 60%.
For `O=C(NC1CC1c1ccccc1)c1cccc(Nc2ccc(-c3ccccc3)nn2)c1` (centres unmarked) [Compound 67, N-(2-phenylcyclopropyl)-3-[(6-phenylpyridazin-3-yl)amino]benzamide], in assay [1], the inhibition at 0.1 µM is no less than 60% and the inhibition at 1 µM was no less than 60%. The inhibition at 1 µM in assay [2] is no less than 60%.
`Cc1ccc(CNC(=O)c2cccc(Nc3ccc(-c4ccsc4)nn3)c2)o1` [Compound 73, N-[(5-methylfuran-2-yl)methyl]-3-{[6-(thiophen-3-yl)pyridazin-3-yl]amino}benzamide]: in assay [1], the inhibition at 0.1 µM is less than 30% and the inhibition at 1 µM was no less than 60%. In addition, the inhibition at 1 µM in assay [2] was no less than 60%.
With `Cc1ccc(CNC(=O)c2cccc(Nc3ccc(-c4cscc4C)nn3)c2)o1` [Compound 74, N-[(5-methylfuran-2-yl)methyl]-3-{[6-(4-methylthiophen-3-yl)pyridazin-3-yl]amino}benzamide], in assay [1], the inhibition at 0.1 µM fell in the range of 30 to 60% and the inhibition at 1 µM was no less than 60%. In assay [2], the inhibition at 1 µM was no less than 60%.
Take `Cc1ccc(CNC(=O)c2cccc(Nc3ccc(-c4ccc(Cl)cc4)nn3)c2)o1` [Compound 75, 3-{[6-(4-chlorophenyl)pyridazin-3-yl]amino}-N-[(5-methylfuran-2-yl)methyl]benzamide]: the inhibition at 1 µM in assay [1] and in assay [2] was 30 to 60% in each case.
On to `COc1cccc(CCNC(=O)c2cccc(Nc3ncc(-c4cccc(F)c4)cn3)c2)c1` [Compound 78, 3-{[5-(3-fluorophenyl)pyrimidin-2-yl]amino}-N-[2-(3-methoxyphenyl)ethyl]benzamide], for which, in assay [1], the inhibition at 0.1 µM is 30 to 60%. For the same molecule, the inhibition at 1 µM was no less than 60% in assay [1] and 30 to 60% in assay [2].
Regarding `O=C(NCCC1CCCCC1)c1cccc(Nc2ncc(-c3ccccc3)cn2)c1` [Compound 81, N-(2-cyclohexylethyl)-3-[(5-phenylpyrimidin-2-yl)amino]benzamide], the inhibition at 0.1 µM in assay [1] lay within 30 to 60%. Besides, the inhibition at 1 µM in assay [1] and in assay [2] was no less than 60% throughout.
Turning to `O=C(NCCc1cc(F)cc(F)c1)c1cccc(Nc2ncc(-c3ccccc3)cn2)c1` [Compound 82, N-[2-(3,5-difluorophenyl)ethyl]-3-[(5-phenylpyrimidin-2-yl)amino]benzamide], the inhibition at 1 µM was less than 30% in assay [1] and 30 to 60% in assay [2].
Turning to `O=C(NCCc1cccc(F)c1)c1cccc(Nc2ncc(-c3ccccc3)cn2)c1` [Compound 90, N-[2-(3-fluorophenyl)ethyl]-3-[(5-phenylpyrimidin-2-yl)amino]benzamide], the results for the inhibition at 1 µM in assay [1] and in assay [2] were 30 to 60% and no less than 60%, respectively.
On to `Cc1ccc(CNC(=O)c2cccc(Nc3ncc(-c4ccc(C)o4)cn3)c2)o1` [Compound 92, N-[(5-methylfuran-2-yl)methyl]-3-{[5-(5-methylfuran-2-yl)pyrimidin-2-yl]amino}benzamide], for which the inhibition at 1 µM in assay [1] and in assay [2] was less than 30% each time.
On to `Cc1ccc(CNC(=O)c2cccc(Nc3ncc(-c4ccccc4C(F)(F)F)cn3)c2)o1` [Compound 98, N-[(5-methylfuran-2-yl)methyl]-3-({5-[2-(trifluoromethyl)phenyl]pyrimidin-2-yl}amino)benzamide], for which the values for the inhibition at 1 µM in assay [1] and in assay [2] were 30 to 60% and no less than 60%, respectively.
Turning to `O=C(NCCN1CC2CCC1C2)c1cccc(Nc2ncc(-c3ccccc3)cn2)c1` (centres unmarked) [Compound 105, N-(2-{2-azabicyclo[2.2.1]heptan-2-yl}ethyl)-3-[(5-phenylpyrimidin-2-yl)amino]benzamide], in assay [1], the inhibition at 0.1 µM is less than 30% and the inhibition at 1 µM is less than 30%. Moreover, in assay [2], the inhibition at 1 µM is less than 30%.
In the case of `Cc1ccc(CNC(=O)c2cccc(Nc3ncc(-c4cccs4)cn3)c2)o1` [Compound 110, N-[(5-methylfuran-2-yl)methyl]-3-{[5-(thiophen-2-yl)pyrimidin-2-yl]amino}benzamide], the inhibition at 1 µM in assay [1] and in assay [2] was 30 to 60% each time.
Take `Cc1ccc(CNC(=O)c2cccc(Nc3ncc(-c4ccoc4C)cn3)c2)o1` [Compound 112, N-[(5-methylfuran-2-yl)methyl]-3-{[5-(2-methylfuran-3-yl)pyrimidin-2-yl]amino}benzamide]: the inhibition at 1 µM was 30 to 60% in assay [1] and no less than 60% in assay [2].
Regarding `O=C(NCCc1ccccc1)c1cccc(Nc2ccc(-c3ccccc3)cn2)c1` [Compound 114, N-(2-phenylethyl)-3-[(5-phenylpyridin-2-yl)amino]benzamide], the inhibition at 0.1 µM in assay [1] was less than 30%. Besides, the inhibition at 1 µM in assay [1] and in assay [2] was no less than 60% in each case.
Turning to `O=C(N[C@@H]1C[C@H]1c1ccccc1)c1cccc(Nc2ccc(-c3ccccc3)cn2)c1` [Compound 115, N-[(1R,2S)-2-phenylcyclopropyl]-3-[(5-phenylpyridin-2-yl)amino]benzamide], the inhibition at 0.1 µM in assay [1] is no less than 60%. For the same molecule, the inhibition at 1 µM in assay [1] and in assay [2] was no less than 60% in each case.
As to `O=C(Nc1cccc(F)c1)c1cccc(Nc2ncc(-c3ccccc3)cn2)c1` [Compound 116, N-(3-fluorophenyl)-3-[(5-phenylpyrimidin-2-yl)amino]benzamide], in assay [1], the inhibition at 0.1 µM is less than 30% and the inhibition at 1 µM was no less than 60%. For the same molecule, the inhibition at 1 µM in assay [2] is no less than 60%.
In the case of `O=C(N[C@@H]1C[C@H]1c1ccccc1)c1cccc(Nc2ncc(-c3ccccc3)cn2)c1` [Compound 117, N-[(1R,2S)-2-phenylcyclopropyl]-3-[(5-phenylpyrimidin-2-yl)amino]benzamide], in assay [1], the inhibition at 0.1 µM was less than 30% and the inhibition at 1 µM was less than 30%. In assay [2], the inhibition at 1 µM is no less than 60%.
With `O=C(NC1CCN(Cc2ccccc2)CC1)c1cccc(Nc2ncc(-c3ccccc3)cn2)c1` [Compound 120, N-(1-benzylpiperidin-4-yl)-3-[(5-phenylpyrimidin-2-yl)amino]benzamide], in assay [1], the inhibition at 0.1 µM was less than 30% and the inhibition at 1 µM is less than 30%. In addition, in assay [2], the inhibition at 1 µM was less than 30%.
Consider `O=C(NCCc1ccccc1)c1cccc(Nc2ccc(-c3cccc(F)c3)cn2)c1` [Compound 121, 3-{[5-(3-fluorophenyl)pyridin-2-yl]amino}-N-(2-phenylethyl)benzamide], for which the inhibition at 1 µM in assay [1] was 30 to 60%; in assay [2], no less than 60%.
For `Cc1ccc(CNC(=O)c2cccc(Nc3ccc(-c4cccc(F)c4)cn3)c2)o1` [Compound 125, 3-{[5-(3-fluorophenyl)pyridin-2-yl]amino}-N-[(5-methylfuran-2-yl)methyl]benzamide], in assay [1], the inhibition at 0.1 µM was less than 30% and the inhibition at 1 µM was no less than 60%. In addition, the inhibition at 1 µM in assay [2] was no less than 60%.
For the molecule `Cc1ccc(CNC(=O)c2cccc(Nc3ccc(-c4ccc(F)cc4)nn3)c2)o1` [Compound A1], in assay [1], the inhibition at 0.1 µM was less than 30% and the inhibition at 1 µM was less than 30%. Also, in assay [2], the inhibition at 1 µM fell in the range of 30 to 60% and the inhibition at 30 µM is no less than 60%.
Consider `O=C(NC1CCCCC1)c1cccc(Nc2ccc(-c3ccc(F)cc3)nn2)c1` [Compound A2], for which, in assay [1], the inhibition at 0.1 µM is less than 30% and the inhibition at 1 µM is less than 30%. Further, in assay [2], the inhibition at 1 µM is no less than 60% and the inhibition at 30 µM was no less than 60%.
